Laboratory results as given in publication PMC8625357, “Metabolism of Selected 2-Arylbenzofurans in a Colon In Vitro Model System” (Foods, 2021).
Values joined by “and” are separate entries in the source; they are usually repeats but may differ in a detail not shown here. Equal values may be shown once.

What was measured:
[1] = test system: THP-1 human monocytic leukemic cell line; parameters: method as in PMID 24901948; details: read-out: cytotoxic activity; cited from earlier work
human fecal microbiota = test: In vitro batch fermentation with human fecal microbiota; type: in vitro ADME; parameters: final concentration after 8 h of fermentation: reference not given here; details: for bacterial metabolites detected: feces from three donors, 8 h
Method: Using a batch fermentation model of the human colon, 2-arylbenzofurans were incubated after the addition of human fecal bacteria from three donors. Samples were collected at 0, 2, 4, and 8 h and the effect of microbiota on tested 2-arylbenzofurans was determined by UHPLC/MS HRAM.
Medium was prepared from 225 mL of distilled water, 112.5 mL of macromineral solution, 56.25 μL of micromineral solution, 562.5 μL of 0.1% resazurin solution, and 1.125 g of tryptone. The macromineral solution was prepared from 7.14 g of Na2HPO4, 6.2 g of KH2PO4, 0.6 g of MgSO4, and up to 1 L of distilled water. The micromineral solution was made of 2.64 g of CaCl2, 2 g of MnCl2, CoCl2, 1.6 g of FeCl3, and up to 20 mL of distilled water. CO3 buffer was created by mixing 1 g of NH4HCO3, 8.75 g of NaHCO3, and distilled water up to 250 mL.
Phosphate buffer for fecal slurries was created by dissolving 1.77 g of KH2PO4 in 195 mL of distilled water and 3.62 g of Na2HPO4 in 305 mL of distilled water (both 1/15M). The acidity of the mixed phosphate buffer was adjusted to a neutral pH by hydrochloric acid. The reducing solution was created by mixing 125 mg of cysteine hydrochloride, 125 mg of Na2S, 0.8 mL of 1M NaOH, and distilled water up to 20 mL.
Mulberrofuran Y (1), moracin C (2), and mulberrofuran G (3) were dissolved in DMSO to a final concentration of 10 mg/mL. After boiling the fermentation medium and sodium phosphate buffer, both were cooled to 37 °C. To remove oxygen, the samples were purged with nitrogen gas (approximately 30 min). The pH of the medium was equilibrated to neutral pH using HCl. For each fermentation bottle, 17.18 mL of fermentation medium and 0.8 mL of reducing solution were transferred to create fermentation vials. Fecal slurry was prepared immediately after sampling from each donor by homogenizing the collected feces in a stomacher bag with phosphate buffer to produce a 25% fecal slurry. After filtration through the mesh, 2 mL of the filtered fecal slurry were added to each fermentation bottle. Finally, 20 μL of the tested compound or DMSO as a negative control were added. The bottles were incubated at 37 °C for 8 h with stirring at 100 strokes per minute. Aliquots of fecal suspensions were collected at 0, 2, 4, and 8 h, and stored at −80 °C until further analysis.
First, 400 μL sample of supernatant fluid were defrosted and centrifuged (5 min/15,000 RPM) and the pellet was erased. Supernatant was combined with 20 μL of ^13C6 trans-resveratrol in methanol (2 μg/mL), which was used as an internal standard. Samples were extracted 3 times with 2.5 mL of ethyl acetate and 2 mL of ultra-pure water. After liquid-liquid extraction, ethyl acetate was evaporated with nitrogen gas and redissolved in 1 mL of methanol (VWR Chemicals, Stribrna Skalice, Czech Republic) in combination with formic acid (Fisher Scientific, Merelbeke, Belgium) (1%).
(§1) The analysis was performed on an LC/MS system consisting of an Ultimate 3000 UPLC chromatograph Thermo Fisher Scientific (Waltham, MA, USA) coupled to an Impact II ultra-high resolution high mass accuracy mass spectrometer (HRAM) Q-TOF (Bruker Daltonics, Bremen, Germany) equipped with an electrospray ionization (ESI) source.
(§2) The separation was carried out on a Phenomenex F5 Kinetex column (1.7 μm 100 Å 100 × 2.1 mm) (Phenomenex, Torrance, CA, USA) by using a mobile phase consisting of 0.1% formic acid (solvent A) and methanol (solvent B). The binary gradient was run at a flow rate of 0.2 mL/min as follows: 0–3 min isocratic at 20% B, 3–6 min from 20% to 50% B, 6–15 min isocratic at 100% B, and 15–20 min isocratic at 20% B. The column oven was adjusted to 35 °C, and the injection volume was 5 μL.
For metabolite screening, the ESI source was set in both positive and negative mode. Semiquantitative analysis was performed in negative mode with the parameters listed in the Appendix A. Each compound was confirmed by MS/MS fragmentation with a collision energy voltage (20, 30, and 50 eV). […]

Caco-2 cell line = test: Permeability and metabolism assay on Caco-2 cell line in Transwell plates; type: in vitro ADME, human; details: for Apical side (unchanged parent compound) / Basolateral side (unchanged parent compound) / Cells (unchanged parent compound) / Transformed (converted or metabolized): of the initial 20 μM as 100%, after 4 h; for Transformed (converted or metabolized): remainder
Method: as §1, §2
For metabolite screening, the ESI source was set in both positive and negative mode. Semiquantitative analysis was performed in negative mode with the parameters listed in the Appendix A. Each compound was confirmed by MS/MS fragmentation with a collision energy voltage (20, 30, and 50 eV). Data acquisition was performed using HyStar 3.2 SR4, Otof series 4.0 (Bruker Daltonics, Bremen, Germany) and Chromeleon Xpress (Thermo Fisher Scientific, Waltham, MA, USA) software and the data obtained were analyzed by using DataAnalysis 4.3. (Bruker Daltonics, Bremen, Germany). Commercially available standards of mulberrofuran Y (1), moracin C (2), and mulberrofuran G (3), each at 9 concentration levels ranging from 0.5–500 ng/mL, were used for calibration. A list of the 2-arylbenzofurans monitored in the samples is given in the Appendix B.
The Caco-2 cell lines were purchased from the American Type Tissue Collection (Rockville, MD, USA). Caco-2 cells in Transwells at passage 25 were used. More information on cell culture and passaging is described in [17].
Cells were cultured in DMEM-F12 (Dulbecco’s modified Eagles medium—Nutrient Mixture F-12) supplemented with 10% FBS (fetal bovine serum), 1% nonessential amino acids, 1% penicillin, and streptomycin, all obtained from Sigma-Aldrich (Prague, Czech Republic) in humidified air containing 5% CO2. Cells were seeded at a density of 2.6 × 10^5 cells/cm in 24-wells. The inserts were pre-filled with 50 µL of medium before seeding the cells. After seeding, the basolateral side of the chamber was filled with 1 mL of DMEM, and cells were grown in a humidified atmosphere of 5% CO2 at 37 °C. Non-adherent cells were removed by removing the medium after 6 h of incubation and replaced with 0.5 mL of fresh DMEM. The culture medium was replaced seven times a week for 21 to 25 days prior to the transport experiment.
The filter inserts containing a monolayer of the Caco-2 cell line were washed three times with HBBS (Hanks’ Balanced Salt solution) heated to 37 °C and pH 7.4. The integrity of the cell monolayer was confirmed by measuring the transepithelial electrical resistance (TEER), which had to be at least 600 Ω. After adding 25 µM lucifer yellow, the plates were incubated at 37 °C in 5% CO2 atmosphere for 1 h with shaking (150 rpm). Using a Tecan Infinite M200 reader (Excitation/Emission wavelength 480 nm/530 nm), the plates were measured. Only plates with an integrity greater than 95% were used in the following experiment.
Initially, 500 µL of 20 µM test substance solutions were added to the apical side of each insert and 1000 µL of HBSS were added to the basolateral side. At the same time, 50 µL were taken immediately from the apical side at the time point of 0 h. For future analysis, basolateral sampling times of 0.5, 1, 1.5, 2, 3, and 4 h were chosen while placing the plates in the incubator and using an orbital shaker (150 rpm). In this experiment, 500 µL of sample were always taken from the basolateral side and replaced with an equal amount of pure HBSS. After 4 h, the apical side was simultaneously removed, and the inserts were washed three times with HBSS. […]

COX = test system: COX; parameters: method as in PMID 3097265; details: cited from earlier work
[2] = parameters: method as in PMID 15636183; details: cited from earlier work

SMILES	IC50 [1]	final concentration after 8 h of fermentation (human fecal microbiota; donor D1)	final concentration after 8 h of fermentation (human fecal microbiota; donor D2)	bacterial metabolites detected (human fecal microbiota)	Apical side (unchanged parent compound) (Caco-2 cell line)	Basolateral side (unchanged parent compound) (Caco-2 cell line)	Cells (unchanged parent compound) (Caco-2 cell line)	Transformed (converted or metabolized) (Caco-2 cell line)	other results
CC(C)=CCc1c(O)cc(-c2cc3ccc(O)cc3o2)cc1O [Moracin C (2), moracin C]	3.2 ± 0.13 µM	66 ± 3%	87 ± 10%	No metabolites were detected	0.7 ± 0.2%	0 ± 0%	8.2 ± 0.5%	91.1 ± 0.7%	Apical side (unchanged parent compound) (Caco-2 cell line; listed as moracin C (2)): 0.7 ± 0.2%; Cells (unchanged parent compound) (Caco-2 cell line; listed as moracin C (2)): 8.2% and 8.2 ± 0.5%; Transformed (converted or metabolized) (Caco-2 cell line; listed as moracin C (2)): 91.1 ± 0.7%
CC1=CC2c3c(O)cc(-c4cc5ccc(O)cc5o4)cc3OC3(c4ccc(O)cc4O)Oc4cc(O)ccc4C(C1)C23 (centres unmarked) [Mulberrofuran G (3), mulberrofuran G]	–	–	–	No metabolites were detected	2.7 ± 0.5%	0 ± 0%	14.0 ± 0.6%	83.3 ± 1.1%	COX inhibitor (COX): inhibitor; concentration of parent compound after fermentation (human fecal microbiota; after 8 h, initial 10 μg/mL, in 2 donors): 5000 ng/mL; concentration of parent compound, minimum (human fecal microbiota; at 2 h, initial 10 μg/mL, the one donor in which compound was stable): 9000 ng/mL; concentration of parent compound after fermentation (human fecal microbiota; at 8 h, initial 10 μg/mL, the one donor in which compound was stable): 10000 ng/mL; Apical side (unchanged parent compound) (Caco-2 cell line; listed as mulberrofuran G (3)): 2.7 ± 0.5%; Basolateral side (unchanged parent compound) (Caco-2 cell line; listed as mulberrofuran G (3)): nothing; Cells (unchanged parent compound) (Caco-2 cell line; listed as mulberrofuran G (3)): 14% and 14.0 ± 0.6%; Transformed (converted or metabolized) (Caco-2 cell line; listed as mulberrofuran G (3)): 83.3 ± 1.1%; antimicrobial effects [2]: potent antimicrobial effects
COc1c(O)cc2oc(-c3cc(O)cc(O)c3)cc2c1C/C=C(\C)CCC=C(C)C [Mulberrofuran Y (1), mulberrofuran Y]	4.8 ± 0.19 µM	25 ± 0%	69 ± 8%	No metabolites were detected	8.9 ± 5.9%	0 ± 0%	85.3 ± 19.9%	5.8 ± 25.8%	became detectable on the basolateral side after (Caco-2 cell line; incubation time, basolateral sampling 0.5-4 h): 3 h; Apical side (unchanged parent compound) (Caco-2 cell line; listed as mulberrofuran Y (1)): 8.9 ± 5.9%; Basolateral side (unchanged parent compound) (Caco-2 cell line; listed as mulberrofuran Y (1)): no amount; Cells (unchanged parent compound) (Caco-2 cell line; listed as mulberrofuran Y (1)): 85.3% and 85.3 ± 19.9%; Transformed (converted or metabolized) (Caco-2 cell line; listed as mulberrofuran Y (1)): 5.8 ± 25.8%
